Test results: patent publication US7186738B2, “Antibacterial oxalidinones” (AstraZeneca AB, priority 2003, dated 2007)
≈ marks a conversion by molar mass, not a printed value.

Experiments:
Enterococcus faecium = assay: MIC by agar dilution, standard in-vitro test system; format: cell-based; conditions: agar with 5% defibrinated horse blood, 10^4 CFU/spot, 37° C., 5% carbon dioxide, 48 hours
Experimental: (§1) The following results were obtained on a standard in-vitro test system. The activity is described in terms of the minimum inhibitory concentration (MIC) determined by the agar-dilution technique with an inoculum size of 10^4 CFU/spot. Typically, compounds are active in the range 0.01 to 256 μg/ml. Streptococci and enterococci were tested on agar supplemented with 5% defibrinated horse blood, an inoculum of 10^4 CFU/spot and an incubation temperature of 37° C. in an atmosphere of 5% carbon dioxide for 48 hours—blood is required for the growth of some of the test organisms.

Streptococcus pneumoniae = assay: as above; format: cell-based; conditions: agar with 5% defibrinated horse blood, 10^4 CFU/spot, 37° C., 5% carbon dioxide, 48 hours
Experimental: as §1

[1] = system: Staphylococcus aureus MRQR (methicillin resistant and quinolone resistant); assay: as above; format: cell-based; conditions: inoculum 10^4 CFU/spot, 37° C., 24 hours
Experimental: (§2) The following results were obtained on a standard in-vitro test system. The activity is described in terms of the minimum inhibitory concentration (MIC) determined by the agar-dilution technique with an inoculum size of 10^4 CFU/spot. Typically, compounds are active in the range 0.01 to 256 μg/ml.
(§3) Staphylococci were tested on agar, using an inoculum of 10^4 CFU/spot and an incubation temperature of 37° C. for 24 hours—standard test conditions for the expression of methicillin resistance.

[2] = system: Staphylococcus aureus MSQS (methicillin sensitive and quinolone sensitive); assay: as above; format: cell-based; conditions: inoculum 10^4 CFU/spot, 37° C., 24 hours
Experimental: as §2, §3

Moraxella catarrhalis = assay: as above; format: cell-based; conditions: inoculum 10^4 CFU/spot
Experimental: as §2

MAO-A = molecular target: T1, MAO-A (Homo sapiens, UniProt P21397); assay: MAO-A standard in-vitro assay, human liver enzyme expressed in yeast; format: biochemical; conditions: read-out: Ki value against MAO-A (converted)
T1 construct: made in house; host or cells: yeast
T1 sequence (P21397 1-527): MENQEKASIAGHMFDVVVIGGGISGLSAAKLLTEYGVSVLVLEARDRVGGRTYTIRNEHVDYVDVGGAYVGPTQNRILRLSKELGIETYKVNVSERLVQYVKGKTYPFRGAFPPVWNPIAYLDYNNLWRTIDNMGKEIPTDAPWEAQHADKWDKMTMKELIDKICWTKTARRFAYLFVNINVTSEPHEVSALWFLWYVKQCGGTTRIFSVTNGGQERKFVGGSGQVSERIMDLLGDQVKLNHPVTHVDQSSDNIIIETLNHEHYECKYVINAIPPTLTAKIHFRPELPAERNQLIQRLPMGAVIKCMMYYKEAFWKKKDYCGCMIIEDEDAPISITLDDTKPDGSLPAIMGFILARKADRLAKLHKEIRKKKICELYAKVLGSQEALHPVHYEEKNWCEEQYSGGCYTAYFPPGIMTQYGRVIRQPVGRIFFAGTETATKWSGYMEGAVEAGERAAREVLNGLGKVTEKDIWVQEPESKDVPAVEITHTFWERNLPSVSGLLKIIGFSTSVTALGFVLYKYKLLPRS
Experimental: The activity of the compounds of the invention against MAO-A was tested using a standard in-vitro assay based on human liver enzyme expressed in yeast as described in Biochem. Biophys. Res. Commun. 1991, 181, 1084–1088.

Cc1cc(-c2ccc(N3C[C@H](Cn4ccnn4)OC3=O)cc2F)on1 [Example 1, (5R)-3-[3-Fluoro-4-(3-methylisoxazol-5-yl)phenyl]-5-(1H-1,2,3-triazol-1-ylmethyl)-1,3-oxazolidin-2-one]
MIC (Enterococcus faecium): 0.5 mg/L (≈ 1.46 µM) | MIC (Streptococcus pneumoniae): 0.25 mg/L (≈ 0.728 µM) | MIC [1]: 1 mg/L (≈ 2.91 µM) | MIC [2]: 0.5 mg/L (≈ 1.46 µM) | MIC (Moraxella catarrhalis): 1 mg/L (≈ 2.91 µM)

CCOC(=O)c1cc(-c2ccc(N3C[C@H](Cn4ccnn4)OC3=O)cc2F)on1 [Example 2, Ethyl 5-{2-fluoro-4-[(5R)-2-oxo-5-(1H-1,2,3-triazol-1-ylmethyl)-1,3-oxazolidin-3-yl]phenyl}isoxazole-3-carboxylate]
Ki (MAO-A): 47.3 µM

O=C1O[C@@H](Cn2ccnn2)CN1c1ccc(-c2c[nH]nn2)c(F)c1 [Example 7, (5R)-3-[3-Fluoro-4-(1H-1,2,3-triazol-4-yl)phenyl]-5-(1H-1,2,3-triazol-1-ylmethyl)-1,3-oxazolidin-2-one]
Ki (MAO-A): 437 µM

CCOC(=O)c1cc(-c2ccc(N3C[C@H](CNC(C)=O)OC3=O)cc2F)on1 [acetamide analogue of Example 2, reference compound]
Ki (MAO-A): 15.3 µM

CC(=O)NC[C@H]1CN(c2ccc(-c3c[nH]nn3)c(F)c2)C(=O)O1 [acetamide analogue of Example 7, reference compound]
Ki (MAO-A): 106 µM
